“Also recorded” adds a separate entry of the source. Like-named read-outs stand apart in the source and are kept apart here.
Key:
human ASGPR-1 = target: T1, human ASGPR-1 (Homo sapiens, UniProt P07306); test: Solid-phase binding assay with recombinant receptors
T1 construct: The extracellular domains of receptors, which were fused with the Fc domain of immunoglobulin IgG; purchased R&D Systems
T1 sequence (P07306 62-291 limits assumed): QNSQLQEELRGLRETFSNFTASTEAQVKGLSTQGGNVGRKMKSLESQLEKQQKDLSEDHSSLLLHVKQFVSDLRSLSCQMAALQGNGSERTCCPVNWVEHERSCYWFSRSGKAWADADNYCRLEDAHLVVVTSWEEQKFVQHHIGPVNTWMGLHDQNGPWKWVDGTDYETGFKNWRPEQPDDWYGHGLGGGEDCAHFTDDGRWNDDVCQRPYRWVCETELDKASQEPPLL
Method: (§1) Binding Assays Solid-phase binding assays were performed with streptavidin-, protein A/G-, or Nickel-coated microtiter plates (Pierce). His-tagged or Fc-fusion recombinant receptors (R&D Systems, Minneapolis, Minn.) were reconstituted in PBS. Sufficient receptors were added to wells to saturate the coating. His-tagged receptors were added to each well at a 5-fold excess over the stated capacity of the Ni coating to minimize non-specific binding of the peptide. Wells were washed three times with binding buffer (25 mM Tris HCl, pH 7.4, 150 mM NaCl, 0.05% Tween-20) to remove unbound receptor and 50 μL of 2 μM biotinylated peptide in binding buffer were added and allowed to incubate for 1 h. The wells were washed four times with binding buffer and then incubated with 50 μL of 1 μg/mL streptavidin conjugated with peroxidase (Sigma-Aldrich) for 1 h. The wells were washed five times with binding buffer and 50 μL of peroxidase substrate (1-Step™ Ultra TMB, Pierce) were added. After several minutes to allow color development, the reaction was stopped with 50 μL 1 M H3PO4 and absorbance was measured at 450 nm. Bound streptavidin was quantitated by the specific activity of peroxidase (absorbance/ng protein conjugate/min) under the conditions of the assay.
(§2) Solid-phase binding assays were performed with recombinant human receptors. Three variations of the binding assay were used in this study, all of which allowed the arms of the tetravalent peptide to have full flexibility. (i) Biotinylated peptide was bound in microtiter wells coated with streptavidin and incubated with recombinant human receptors. After extensive washing, the bound receptor was measured by peroxidase conjugated to a receptor-specific antibody. (ii) The extracellular domains of receptors, which were fused with the Fc domain of immunoglobulin IgG, were bound in wells coated with protein A/G. Biotinylated peptide was incubated with the receptors and, after extensive washing, bound peptide was measured with streptavidin conjugated with peroxidase. Or (iii), recombinant receptors with a poly-His tag were bound to Nickel-coated wells and incubated with biotinylated peptide. svL4 and sv6D contain His residues (FIGS. 1A, 1C) and can bind to the Ni coating, which was minimized by adding sufficient poly-His-tagged receptor to saturate the Ni coating.

ASGPR-1 = target: T2, ASGPR-1 (Homo sapiens, UniProt P07306); conditions: ref [49]; cited from earlier work
T2 sequence (P07306 1-291): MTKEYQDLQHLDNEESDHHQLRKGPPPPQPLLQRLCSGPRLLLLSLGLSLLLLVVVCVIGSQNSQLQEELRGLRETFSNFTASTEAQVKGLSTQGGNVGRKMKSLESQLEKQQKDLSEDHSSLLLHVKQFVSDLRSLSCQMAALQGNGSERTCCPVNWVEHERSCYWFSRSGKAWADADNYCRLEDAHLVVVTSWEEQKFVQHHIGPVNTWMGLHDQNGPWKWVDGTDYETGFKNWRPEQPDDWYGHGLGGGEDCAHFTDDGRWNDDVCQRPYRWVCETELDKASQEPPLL

[1] = ref [90], cited from earlier work
[2] = target: T3, recombinant human CLEC10A (Homo sapiens, UniProt Q8IUN9); test: Solid-phase binding assay with recombinant receptors; conditions: biotinylated tetravalent peptide
T3 construct: The extracellular domains of receptors, which were fused with the Fc domain of immunoglobulin IgG; purchased R&D Systems
T3 sequence (Q8IUN9 61-316 limits assumed): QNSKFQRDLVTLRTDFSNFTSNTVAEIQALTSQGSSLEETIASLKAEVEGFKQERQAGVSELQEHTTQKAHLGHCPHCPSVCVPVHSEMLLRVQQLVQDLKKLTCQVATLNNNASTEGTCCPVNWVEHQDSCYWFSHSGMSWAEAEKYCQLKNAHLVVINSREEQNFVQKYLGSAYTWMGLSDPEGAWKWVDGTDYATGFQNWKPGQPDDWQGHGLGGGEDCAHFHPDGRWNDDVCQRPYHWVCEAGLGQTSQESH
Method: as §1, §2

peritoneal immune cells = test: Expansion of peritoneal cells after subcutaneous injection, flow cytometry; type: in vivo, C57BL/6 mice; conditions: 1 nmol/g s.c. on days 0, 2, 4; cells 24 h after each injection
Method: FIGS. 7A-7D. Expansion of peritoneal cells in C57BL/6 mice. Mice were injected subcutaneously at a dose of 1 nmol/g body weight of svL4, sv6D or svC1. Cells in each population recovered in a peritoneal lavage are expressed as cell counts (in thousands). Cells from three mice in each treatment group were pooled for analysis. The number of cells in each population was normalized to the average recovery of total cells from all groups. For each cell type, the left-hand, middle and right-hand set of bars represent samples from mice treated with svL4, sv6D or svC1, respectively. Mice were injected on days 0, 2 and 4, and cells were collected 24 h after each injection. Day 1, open bar; day 3, grey bar; day 5, black bar. Populations that express activation markers are indicated by an asterisk.
Flow Cytometry Healthy C57BL/6 male mice, 10 weeks old, were injected subcutaneously with peptides on alternate days. Peritoneal cells were isolated from mice 24 h after dosing by injecting ice cold PBS (containing 3% FBS) into the peritoneal cavity, gently massaging the abdomen, and then collecting the fluid, which was transferred into K2EDTA-treated tubes for evaluation of specific biomarkers. Cells from three mice in each group were pooled, counted and divided among FACS tubes (1×10^6 cells per tube). Cells were washed once in PBS containing 3% FBS, then stained with 0.25 to 1 μg of fluorescently conjugated antibody per 10^6 cells in 100 μL of buffer as recommended by the manufacturer (Table 1).
Cells were incubated with the antibodies for 30 min at 4° C. in the dark. Following staining, the cells were washed two times with PBS/3% FBS and immediately analyzed with a MACSQuant flow cytometer (Miltenyi Biotech, Inc., San Diego, Calif.). Compensation was performed using single stain tubes for each color present in the analysis as well as an unstained control sample. Collection of flow cytometric data and analysis with FlowJo software, version 10.0.6 (FlowJo, LLC, Ashland, Oreg.) were performed by Biomodels LLC (Watertown, Mass.).
To examine whether increases occurred in mature immune cells, peritoneal cells from Balb/c and C57BL/6 mice were analyzed by flow cytometry after cells were stained with the markers listed in Table 1. […] To explore this observation more extensively, svL4 or sv6D was injected into C57BL/6 mice on day 0, 2 or 4. Peritoneal cells were examined by flow cytometry 24 h after each injection. Shown in FIGS. 7A-7D are results expressed as cell counts for F4/80 CD11b CD86 (mature, active macrophages); CD11c (DCs); CD11c CD86 (activated DCs); CD4 CD69 (activated T cells); CD8 CD69 (activated cytotoxic T cells); NK1.1 CD3^+ CD69 (activated NKT cells); NK1.1 CD3^− CD69 (activated NK cells); CD19 (B cells); and CD19 CD73 CD80 CD273 (memory B cells). The numbers of these mature, activated cells continued to increase with each injection.

STING pathway = test: THP1-Dual reporter cells, secreted luciferase; type: cell-based, human; conditions: medium of THP1 reporter cells
Method: FIGS. 12A-12B. Conjugation with cyclic dinucleotide. (FIG. 12A) The cyclic dinucleotide, c[G(2′,5′)p-2′-AHC-A(3′,5′)p] (CDN, AHC=6-aminohexylcarbamoyl), was conjugated to N-acetylated-sv6D by a carbodiimide reaction. (FIG. 12B) The conjugate delivers the activation factor at much lower concentrations. Human THP1 monocytes, engineered to detect activation of the type 1 IFN pathway (THP1-Dual™ Cells, InvivoGen, San Diego, Calif.), were incubated 20 hours with sv6D in RPMI 1640 medium containing 10% fetal bovine serum after adding the peptide CDN conjugate. The medium was recovered and then incubated with the luciferase detection reagent (Quanti-Luc™, InvivoGen) to assay for luciferase secreted in response to activation of the STING pathway. Photons were detected with a spectrofluorometer. […] The conjugate targets M2 macrophages and tumor cells that express CLEC10A and thus would produce IFN-β within the tumor microenvironment. […]
The ability of sv6D-CDN conjugates to induce activation of the STING pathway for production of type 1 interferons (IFN-α/β) was tested by incubating human THP1 monocytes that were genetically engineered as reporter cells (InvivoGen, San Diego, Calif.), with the conjugate. […] However, luciferase was detected in the medium of cells incubated with nanomolar concentrations of sv6D-CDN conjugate.

STING protein = STING protein (Homo sapiens, UniProt Q86WV6); conditions: refs [108,109]; cited from earlier work
Sequence of STING protein (Q86WV6 whole entry): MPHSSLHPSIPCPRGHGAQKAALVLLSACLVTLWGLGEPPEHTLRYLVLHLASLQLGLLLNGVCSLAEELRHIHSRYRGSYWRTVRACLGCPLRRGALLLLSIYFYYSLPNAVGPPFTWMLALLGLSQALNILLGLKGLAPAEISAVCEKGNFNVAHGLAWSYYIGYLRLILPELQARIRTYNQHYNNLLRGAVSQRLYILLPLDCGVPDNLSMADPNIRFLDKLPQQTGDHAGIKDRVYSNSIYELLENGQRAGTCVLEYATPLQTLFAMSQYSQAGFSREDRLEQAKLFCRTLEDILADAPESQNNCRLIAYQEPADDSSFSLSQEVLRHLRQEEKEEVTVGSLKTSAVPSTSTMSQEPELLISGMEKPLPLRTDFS

[3] = tested on: ID8 ovarian cancer cell line; test: Murine model of ovarian cancer, sv6D and paclitaxel
Method: Combination study of sv6D and paclitaxel. (FIG. 8A) Female C57BL/6 mice were implanted with ID8 ovarian cancer cell line. […] Body weights of mice are shown as measured on day 58, after two weeks of alternate-day subcutaneous treatment with sv6D (0.1 nmol/g) or 3 intraperitoneal doses (days 45, 47 and 49) of 18 μg/g paclitaxel in cremophor. […] (FIG. 8B) Alternate-day injections of sv6D were initiated on day 50 with peptide alone or on day 100 to mice that were previously treated with paclitaxel between day 45 and 49. […] (FIG. 8C) Kaplan-Meier survival curves for mice treated with paclitaxel, sv6D or a combination of the two in which alternate-day subcutaneous injections of sv6D was started 50 days after paclitaxel treatment.
Cells of an ovarian epithelial cancer line, ID8 [110], were implanted into the peritoneal cavity of female C57BL/6 mice at a dose of 6×10^6 cells. All animals were weighed at least weekly throughout these studies. Accumulation of ascites was monitored by increase in body weight, and animals were euthanized when end-stage behavior was expressed. […] Kaplan-Meier survival curves were analyzed by the Mantel-Cox log-rank test.
A murine ovarian cancer cell line (ID8) was implanted into the peritoneal cavity of C57BL/6 female mice on day 0. […] Progression of the cancer was monitored by body weight of animals as an indication of ascites accumulation.

[4] = photodynamic, read-out: IC50 concentration for cell killing

## Asialofetuin: a multi-glycosylated protein [reference compound]
Human ASGPR-1; asialofetuin at 75 μM, svL4 0.2 μM
  Inhibition of binding of svL4 to ASGPR-1: 53%
ASGPR-1
  IC50: 45600 ± 2700 nM

## chlorin p6
[1]; exposed to red light, read-out: IC50 for photosensitized cell killing
  IC50: 30 nM
[1]; [4]
  IC50: ~10 nM

## purpurin-18
[1]; [4]
  IC50: ~10 nM

## svC1: subset of svL4: the N-terminal half of the sequence; does not bind CLEC10A, used as control (VQATQSGGGS)
Human ASGPR-1; biotinylated tetravalent peptide
  Binding to ASGPR-1: near the level of blank wells
[2]
  Binding to CLEC10A: near the level of blank wells; also recorded: does not bind
Peritoneal immune cells
  Change in mature, active peritoneal immune cell populations: did not increase significantly

## c[G(2′,5′)p-2′-AHC-A(3′,5′)p] [CDN]
STING pathway
  Concentration range needed to detect luciferase activity: micromolar concentrations
STING pathway; listed as cyclic dinucleotides
  Concentration range needed to detect luciferase activity: micromolar range
STING protein
  Kd: ~5000 nM

## CC(=O)O[C@H]1C(=O)[C@@]2(C)[C@H]([C@H](OC(=O)c3ccccc3)[C@]3(O)C[C@H](OC(=O)[C@H](O)[C@@H](NC(=O)c4ccccc4)c4ccccc4)C(C)=C1C3(C)C)[C@]1(OC(C)=O)CO[C@@H]1C[C@@H]2O [paclitaxel, reference compound]
[3]; single agent, sv6D 0.1 nmol/g, control median end-stage day 122
  Median survival: approximately 141 days
[3]; treatment from day 45, sv6D 0.1 nmol/g s.c. alternate days, paclitaxel 18 μg/g i.p. x3
  Body weight (ascites accumulation) after two weeks of treatment: had not significantly increased

From patent US11376307B2, “Compositions and methods of treating cancer with glycomimetic peptides” (SUSAVION BIOSCIENCES, INC., priority 2018, dated 2022)
